Experimental data as given in article PMC4146477, “Synthesis and Antimycobacterial and Photosynthesis-Inhibiting Evaluation of 2-[(E)-2-Substituted-ethenyl]-1,3-benzoxazoles” (The Scientific World Journal, 2014).
≈ marks a conversion by molar mass, not a printed value. Where “and” joins values, the source holds several entries; their conditions need not be identical. Equal entries are not always repeated. Where two headings read alike, the source gives them in different places.

Assays:
[1] = system: Mycobacterium tuberculosis My 331/88; assay: In vitro antimycobacterial evaluation (MIC, Sula semisynthetic medium); format: cell-based
[2] = Lipophilicity determination by RP-HPLC (capacity factor k / log k); format: physicochemical; details: C18, MeOH 70% / H2O 30%, isocratic
Excerpt: A Waters Alliance 2695 XE HPLC separation module and a Waters Photodiode Array Detector 2996 (Waters Corp., Milford, MA, USA) were used. A Symmetry C18 5 μm, 4.6 × 250 mm, Part No. WAT054275 (Waters Corp., Milford, MA, USA) chromatographic column was used. The HPLC separation process was monitored by Empower 2 Chromatography Data Software, Waters 2009 (Waters Corp., Milford, MA, USA). A mixture of MeOH p.a. (70%) and H2O-HPLC - Mili-Q Grade (30%) was used as a mobile phase. The total flow of the column was 1.0 mL/min, injection volume, 30 μL, column temperature, 45°C, and sample temperature, 10°C. The detection wavelength of 210 nm was chosen. The KI methanolic solution was used for the dead time (t D) determination. Retention times (t R) were measured in minutes. The capacity factors k were calculated using the Empower 2 Chromatography Data Software according to formula k = (t R − t D)/t D, where t R is the retention time of the solute, whereas t D denotes the dead time obtained using an unretained analyte.
Lipophilicity is a property that has a major effect on ADME/Tox properties as well as pharmacological activity, because drugs mostly cross biological membranes through passive transport, which strongly depends on their lipophilicity. Lipophilicity has been studied and applied as an important drug property for decades. This parameter was measured by means of RP-HPLC and expressed as logarithm of capacity factor k. The procedure was performed under isocratic conditions with methanol as an organic modifier in the mobile phase using an end-capped nonpolar C18 stationary RP column. The hydrophobic contributions (expressed as distributive parameters π) of individual substituents in C(2) position of 2-[(E)-2-substituted-ethenyl]-1,3-benzoxazole scaffold were predicted using ACD/Percepta ver. 2012 (Advanced Chemistry Development, Inc., Toronto, ON, Canada). The results are shown in Table 1 and the match of the experimental determined lipophilicity log k with calculated distributive parameters π is illustrated in Figure 1.

[3] = system: M. avium My 330/88; assay: In vitro antimycobacterial evaluation (MIC, Sula semisynthetic medium); format: cell-based; details: Mycobacterium avium
[4] = system: M. kansasii My 235/80; assay: as above; format: cell-based; details: Mycobacterium kansasii
[5] = system: photosynthetic electron transport (PET) in spinach chloroplasts; assay: Inhibition of photosynthetic electron transport (PET) in spinach chloroplasts (DCPIP photoreduction); format: biochemical, Spinacia oleracea L.; details: DCPIP as electron acceptor
Description: Chloroplasts were prepared from spinach (Spinacia oleracea L.) according to Masarovicova and Kralova. The inhibition of photosynthetic electron transport (PET) in spinach chloroplasts was determined spectrophotometrically (Genesys 6, Thermo Scientific), using an artificial electron acceptor 2,6-dichlorophenol-indophenol (DCPIP) according to Kralova et al., and the rate of photosynthetic electron transport was monitored as a photoreduction of DCPIP. The measurements were carried out in phosphate buffer (0.02 mol/L, pH 7.2) containing sucrose (0.4 mol/L), MgCl2 (0.005 mol/L), and NaCl (0.015 mol/L). The chlorophyll content was 30 mg/L in these experiments and the samples were irradiated (~100 W/m^2 with 10 cm distance) with a halogen lamp (250 W) using a 4 cm water filter to prevent warming of the samples (suspension temperature 22°C). The studied compounds were dissolved in DMSO due to their limited water solubility. […] The inhibitory efficiency of the studied compounds was expressed by IC50 values, that is, by molar concentration of the compounds causing 50% decrease in the oxygen evolution rate relative to the untreated control.

[6] = system: aromatic amino acids in photosynthetic proteins of spinach chloroplasts; assay: Aromatic amino acids (AAA) fluorescence in spinach chloroplasts; format: biochemical, Spinacia oleracea L.; details: increasing concentration (0, 3.2, 6.4, 9.6 μmol/L), excitation 275 nm
Description: The fluorescence emission spectra of aromatic amino acids (AAA) in spinach chloroplasts were recorded on fluorescence spectrophotometer F-2000 (Hitachi, Tokyo, Japan) using excitation wavelength λ ex = 275 nm, excitation slit 20 nm, and emission slit 10 nm. The phosphate buffer used for dilution of the chloroplast suspension was the same as described above. Due to low aqueous solubility the compounds were added to the chloroplast suspension in DMSO solution. The DMSO concentration in all samples was the same as in the control (10%). The chlorophyll concentration in the chloroplast suspension was 10 mg/L. The interaction of studied compounds with aromatic amino acids (AAA) occurring in photosynthetic proteins of spinach chloroplasts situated in PS II was monitored by the quenching of AAA fluorescence at 334 nm.

[7] = MY331/88, 336 h, 14d incubation
[8] = MY331/88, 504 h, 21d incubation
[9] = MY330/88, 336 h, 14d incubation
[10] = MY330/88, 504 h, 21d incubation
[11] = MY235/80, 336 h, 14d incubation, read-out: MIC MK
[12] = MY235/80, 504 h, 21d incubation, read-out: MIC MK
[13] = MY235/80, incubation time not stated, read-out: inhibitory activity (MIC) against M. kansasii

C(=C\c1nc2ccccc2o1)/c1ccccc1 [Compound 1, 2-[(E)-2-Phenylethenyl]-1,3-benzoxazole]
MIC [1, 7]: 125 µM (≈ 27.7 µg/mL) | MIC [1, 8]: 125 µM (≈ 27.7 µg/mL) | log k [2]: 0.9409 | MIC [3, 9]: 62.5 µM (≈ 13.8 µg/mL) | MIC [3, 10]: 125 µM (≈ 27.7 µg/mL) | MIC [4, 11]: 125 µM (≈ 27.7 µg/mL) | MIC [4, 12]: 125 µM (≈ 27.7 µg/mL) | IC50 [5]: 149 µM

COc1ccccc1/C=C/c1nc2ccccc2o1 [Compound 2, 2-[(E)-2-(2-Methoxyphenyl)ethenyl]-1,3-benzoxazole]
MIC [1, 7]: 125 µM (≈ 31.4 µg/mL) | MIC [1, 8]: 125 µM (≈ 31.4 µg/mL) | log k [2]: 0.9325 | MIC [3, 9]: 62.5 µM (≈ 15.7 µg/mL) | MIC [3, 10]: 125 µM (≈ 31.4 µg/mL) | MIC [4, 11]: 125 µM (≈ 31.4 µg/mL) | MIC [4, 12]: 125 µM (≈ 31.4 µg/mL) | IC50 [5]: 76.3 µM

COc1ccc(/C=C/c2nc3ccccc3o2)cc1 [Compound 3, 2-[(E)-2-(4-Methoxyphenyl)ethenyl]-1,3-benzoxazole]
MIC [1, 7]: 62.5 µM (≈ 15.7 µg/mL) | MIC [1, 8]: 62.5 µM (≈ 15.7 µg/mL) | log k [2]: 0.9382 | MIC [3, 9]: 32 µM (≈ 8.04 µg/mL) | MIC [3, 10]: 62.5 µM (≈ 15.7 µg/mL) | MIC [4, 11]: 62.5 µM (≈ 15.7 µg/mL) | MIC [4, 12]: 125 µM (≈ 31.4 µg/mL) | IC50 [5]: 216 µM | AAA fluorescence at 334 nm [6]: strong decline

CSc1ccc(/C=C/c2nc3ccccc3o2)cc1 [Compound 4, 2-{(E)-2-[4-(Methylsulfanyl)phenyl]ethenyl}-1,3-benzoxazole]
MIC [1, 7]: 62.5 µM (≈ 16.7 µg/mL) | MIC [1, 8]: 125 µM (≈ 33.4 µg/mL) | log k [2]: 1.1225 | MIC [3, 9]: 62.5 µM (≈ 16.7 µg/mL) | MIC [3, 10]: 62.5 µM (≈ 16.7 µg/mL) | MIC [4, 11]: 62.5 µM (≈ 16.7 µg/mL) | MIC [4, 12]: 62.5 µM (≈ 16.7 µg/mL) | MIC [4, 13]: 62.5 µM (≈ 16.7 µg/mL) | IC50 [5]: 199 µM

Cc1ccc(/C=C/c2nc3ccccc3o2)cc1 [Compound 5, 2-[(E)-2-(4-Methylphenyl)ethenyl]-1,3-benzoxazole]
MIC [1, 7]: 250 µM (≈ 58.8 µg/mL) | MIC [1, 8]: 250 µM (≈ 58.8 µg/mL) | log k [2]: 1.1226 | MIC [3, 9]: 125 µM (≈ 29.4 µg/mL) | MIC [3, 10]: 250 µM (≈ 58.8 µg/mL) | MIC [4, 11]: 250 µM (≈ 58.8 µg/mL) | MIC [4, 12]: 500 µM (≈ 118 µg/mL) | IC50 [5]: 102 µM

Clc1ccc(/C=C/c2nc3ccccc3o2)cc1 [Compound 6, 2-[(E)-2-(4-Chlorophenyl)ethenyl]-1,3-benzoxazole]
MIC [1, 7]: 250 µM (≈ 63.9 µg/mL) | MIC [1, 8]: 250 µM (≈ 63.9 µg/mL) | log k [2]: 1.1226 and 1.1271 | MIC [3, 9]: 250 µM (≈ 63.9 µg/mL) | MIC [3, 10]: 500 µM (≈ 128 µg/mL) | MIC [4, 11]: 500 µM (≈ 128 µg/mL) | MIC [4, 12]: 500 µM (≈ 128 µg/mL) | MIC [4, 13]: 500 µM (≈ 128 µg/mL) | IC50 [5]: 517 µM

FC(F)(F)c1ccc(/C=C/c2nc3ccccc3o2)cc1 [Compound 7, 2-{(E)-2-[4-(Trifluoromethyl)phenyl]ethenyl}-1,3-benzoxazole]
MIC [1, 7]: 125 µM (≈ 36.2 µg/mL) | MIC [1, 8]: 250 µM (≈ 72.3 µg/mL) | log k [2]: 1.1317 | MIC [3, 9]: 125 µM (≈ 36.2 µg/mL) | MIC [3, 10]: 250 µM (≈ 72.3 µg/mL) | MIC [4, 11]: 250 µM (≈ 72.3 µg/mL) | MIC [4, 12]: 500 µM (≈ 145 µg/mL)

C(=C\c1nc2ccccc2o1)/c1ccc2c(c1)CCO2 [Compound 8, 2-[(E)-2-(2,3-Dihydro-1-benzofuran-5-yl)ethenyl]-1,3-benzoxazole]
MIC [1, 7]: 62.5 µM (≈ 16.5 µg/mL) | MIC [1, 8]: 62.5 µM (≈ 16.5 µg/mL) | log k [2]: 0.9397 | MIC [3, 9]: 32 µM (≈ 8.43 µg/mL) | MIC [3, 10]: 32 µM (≈ 8.43 µg/mL) | MIC [4, 11]: 62.5 µM (≈ 16.5 µg/mL) | MIC [4, 12]: 250 µM (≈ 65.8 µg/mL) | IC50 [5]: 131 µM

C(=C\c1nc2ccccc2o1)/c1ccco1 [Compound 9, 2-[(E)-2-(Furan-2-yl)ethenyl]-1,3-benzoxazole]
MIC [1, 7]: 62.5 µM (≈ 13.2 µg/mL) | MIC [1, 8]: 125 µM (≈ 26.4 µg/mL) | MIC [3, 9]: 62.5 µM (≈ 13.2 µg/mL) | MIC [3, 10]: 125 µM (≈ 26.4 µg/mL) | MIC [4, 11]: 125 µM (≈ 26.4 µg/mL) | MIC [4, 12]: 125 µM (≈ 26.4 µg/mL) | IC50 [5]: 224 µM

CCc1ccc(/C=C/c2nc3ccccc3o2)o1 [Compound 10, 2-[(E)-2-(5-Ethylfuran-2-yl)ethenyl]-1,3-benzoxazole]
MIC [1, 7]: 250 µM (≈ 59.8 µg/mL) | MIC [1, 8]: 250 µM (≈ 59.8 µg/mL) | log k [2]: 1.0702 | MIC [3, 9]: 250 µM (≈ 59.8 µg/mL) | MIC [3, 10]: 250 µM (≈ 59.8 µg/mL) | MIC [4, 11]: 62.5 µM (≈ 15 µg/mL) | MIC [4, 12]: 250 µM (≈ 59.8 µg/mL) | IC50 [5]: 122 µM

C(/C=C/c1nc2ccccc2o1)=C\c1ccccc1 [Compound 11, 2-[(1E,3E)-4-Phenylbuta-1,3-dien-1-yl]-1,3-benzoxazole]
MIC [1, 7]: 125 µM (≈ 30.9 µg/mL) | MIC [1, 8]: 250 µM (≈ 61.8 µg/mL) | MIC [3, 9]: 250 µM (≈ 61.8 µg/mL) | MIC [3, 10]: 500 µM (≈ 124 µg/mL) | MIC [4, 11]: 500 µM (≈ 124 µg/mL) | MIC [4, 12]: 500 µM (≈ 124 µg/mL) | MIC [4, 13]: 500 µM (≈ 124 µg/mL) | IC50 [5]: 778 µM

COc1ccc(/C=C/C=C/c2nc3ccccc3o2)cc1 [Compound 12, 2-[(1E,3E)-4-(4-Methoxyphenyl)buta-1,3-dien-1-yl]-1,3-benzoxazole]
MIC [1, 7]: 125 µM (≈ 34.7 µg/mL) | MIC [1, 8]: 250 µM (≈ 69.3 µg/mL) | log k [2]: 1.1394 | MIC [3, 9]: 125 µM (≈ 34.7 µg/mL) | MIC [3, 10]: 125 µM (≈ 34.7 µg/mL) | MIC [4, 11]: 125 µM (≈ 34.7 µg/mL) | MIC [4, 12]: 250 µM (≈ 69.3 µg/mL) | IC50 [5]: 351 µM

CN(C)C(=O)Nc1ccc(Cl)c(Cl)c1 [DCMU, 3-(3,4-dichlorophenyl)-1,1-dimethylurea, reference compound]
IC50 [5]: ~1.9 µM and 1.9 µM

NNC(=O)c1ccncc1 [INH, isoniazid, reference compound]
MIC [1, 7]: 0.5 µM (≈ 0.0686 µg/mL) | MIC [1, 8]: 0.5 µM (≈ 0.0686 µg/mL) | MIC [3, 9]: > 250 µM | MIC [3, 10]: > 250 µM | MIC [4, 11]: > 250 µM | MIC [4, 12]: > 250 µM
